Experimental findings from patent publication US20190175519A1, “Naloxone Transdermal Delivery Devices and Methods for Using the Same” (Teikoku Pharma USA, Inc., priority 2017, published 2019) are described below.

A short description of the data set: Pharmacokinetics of transdermal naloxone formulations compared to intravenously administered naloxone. Particulars: female, Gottingen, minipig, in vivo; IV bolus 0.01 mg/kg via marginal ear vein; first time point collected; post dose. On the set-up: species or system Gottingen mini-pigs. An excerpt: The purpose of this study was to determine the dermal irritation and pharmacokinetics of two transdermal naloxone formulations when worn for three days by naïve female Gottingen mini-pigs and to compare the pharmacokinetic transdermal profiles to the PK of intravenously (IV) administered naloxone.
Test materials (Naloxone Transdermal Formulations 1 & 2) were in the form of a single patch that was applied to the prepared skin site of the animals and remained on for a period of three (3) days.
The positive control article (marketed formulation), Naloxone (Narcan 0.4 mg/mL) was diluted with sterile 0.9% normal saline to a concentration of 0.04 mg/mL in order to achieve a desired dose volume of 0.25 mL/kg and dosage of 0.01 mg/kg. […]
Group 3: Narcan intravenous formulation (0.4 mg/mL) was diluted with sterile 0.9% normal saline to a concentration of 0.04 mg/mL. The dose volumes were calculated using the individual body weights of the pigs on the day of dosing. […]
The time of Test Material patch application and removal were recorded for each animal so that dermal scoring and PK time-points were calculated. The time of intravenous injection was also recorded so that PK time-points were calculated.

With `C=CCN1CC[C@]23c4c5ccc(O)c4O[C@H]2C(=O)CC[C@@]3(O)[C@H]1C5` [Naloxone, 17-allyl-4,5α-epoxy-3,14-dihydroxymorphinan-6-one], the Tmax was 5 min.
